Test results published in ChEMBL document CHEMBL1144775, “Secondary metabolites from three Florida sponges with antidepressant activity” (J Nat Prod, 2008).
Calls of active or inactive are those of the source. The rule behind the calls is not given here.

Legend:
Mus musculus [1] = test: Antidepressant like activity in ip dosed Swiss Webster mouse assessed as reduction of immobility time by forced-swim test; format: functional, organism-based
Mus musculus [2] = test: Antidepressant like activity in Swiss Webster mouse assessed as reduction of immobility time at 20 mg/kg, ip after 30 mins by forced-swim test; format: functional, organism-based; parameters: dose 20 mg/kg
Gallus gallus [3] = test: Anxiolytic activity in Cockerels assessed as attenuation separation distress vocalization rate during first 5 mins in anxiety phase at 30 mg/kg, ip; format: functional, organism-based; parameters: dose 30 mg/kg
Gallus gallus [4] = test: Antidepressant activity in Cockerels assessed as attenuation separation distress vocalization rate in final 30 mins of depression phase at 30 mg/kg, ip; format: functional, organism-based; parameters: dose 30 mg/kg
Mus musculus [5] = organism: Mus musculus; test: Sedative effect in Swiss Webster mouse assessed as locomotor activity; format: organism-based; conditions: in vivo

Row | SMILES | Activity (Mus musculus [1]) | Activity (Mus musculus [2]) | Activity (Gallus gallus [3]) | Activity (Gallus gallus [4]) | Activity (Mus musculus [5])
1 | CN1C(=N)N(C)/C(=C/c2c[nH]c3ccccc23)C1=O | inactive |  |  |  | 
2 | C=C1CCC[C@H]2[C@](C)(CC3=C(O)C(=O)C=C(OC)C3=O)[C@@H](C)CC[C@]12C | inactive |  |  |  | 
3 | CN(C)CCc1c[nH]c2cc(Br)c(Br)cc12 |  | Active | Active | Active | 
4 | CN(C)CCc1c[nH]c2ccc(Br)cc12 | inactive |  |  |  | Active
